{"source": "patent US10874745B2", "about": "“Antimicrobial peptides and methods of treating gram-negative pathogens: polar and non-polar face analogs” (priority 2017, dated 2020)", "note": "Where “and” joins values, the source holds several entries; their conditions need not be identical. Equal entries are not always repeated. Non-standard residues stand in square brackets, D forms with d. Residues, ends and D or L forms follow the SMILES beside them.", "data": [{"assay": "Hemolytic activity", "type": "cell-based, human", "conditions": "1% human erythrocytes (red blood cells), pH 7.4; 50% hemolysis of human red blood cells after 18 hours at 37° C.; read-out: HC50", "experimental": "Hemoglobin release was determined spectrophotometrically at 570 nm. […] […] […] With the peptides used in this study the inventors used the HC30/MIC ratio value to calculate the therapeutic index.", "values": [{"smiles": "CC(=O)N[C@H](CCCCN)C(=O)N[C@H](CC(C)C)C(=O)N[C@H](CCCNC(=N)N)C(=O)N[C@H](CO)C(=O)N[C@H](CC(C)C)C(=O)N[C@H](CC(C)C)C(=O)N[C@H](CCCNC(=N)N)C(=O)N[C@@H](C(=O)N[C@H](CC(C)C)C(=O)N[C@H](CO)C(=O)N[C@H](CCCNC(=N)N)C(=O)N[C@H](C)C(=O)N[C@H](CCCCN)C(=O)N[C@H](C)C(=O)N[C@H](C)C(=O)N[C@H](CCCCN)C(=O)N[C@H](CC(C)C)C(=O)N[C@H](CCCNC(=N)N)C(=O)N[C@@H](C(=O)N[C@H](CC(C)C)C(=O)N[C@H](CC(C)C)C(=O)N[C@H](CCCNC(=N)N)C(=O)N[C@H](C)C(=O)N[C@H](CC(C)C)C(=O)N[C@H](CO)C(=O)N[C@H](CCCNC(=N)N)C(N)=O)[C@H](C)O)[C@H](C)O", "note": "[Peptide D87, Ac-KL(Arg)SLL(Arg)TLS(Arg)AKAAKL(Arg)TLL(Arg)ALs(Arg)-amide] (Ac-[dK][dL][dR][dS][dL][dL][dR][dT][dL][dS][dR][dA][dK][dA][dA][dK][dL][dR][dT][dL][dL][dR][dA][dL][dS][dR]-NH2)", "HC50 at 18 h": "12 µg/mL"}, {"smiles": "CC(=O)N[C@H](CCCCN)C(=O)N[C@H](CC(C)C)C(=O)N[C@H](CCCCN)C(=O)N[C@H](CO)C(=O)N[C@H](CC(C)C)C(=O)N[C@H](CC(C)C)C(=O)N[C@H](CCCCN)C(=O)N[C@@H](C(=O)N[C@H](CC(C)C)C(=O)N[C@H](CO)C(=O)N[C@H](CCCCN)C(=O)N[C@H](C)C(=O)N[C@H](CCCCN)C(=O)N[C@H](C)C(=O)N[C@H](C)C(=O)N[C@H](CCCCN)C(=O)N[C@H](CC(C)C)C(=O)N[C@H](CCCCN)C(=O)N[C@@H](C(=O)N[C@H](CC(C)C)C(=O)N[C@H](CC(C)C)C(=O)N[C@H](CCCCN)C(=O)N[C@H](C)C(=O)N[C@H](CC(C)C)C(=O)N[C@H](CO)C(=O)N[C@H](CO)C(N)=O)[C@H](C)O)[C@H](C)O", "note": "[Peptide D101, Ac-KL(Lys)SLL(Lys)TLS(Lys)AKAAKL(Lys)TLL(Lys)ALSS-amide]", "HC50 at 18 h": "279 µg/mL and > 104 µM"}, {"smiles": "CC(=O)N[C@H](CCCCN)C(=O)N[C@H](CC(C)C)C(=O)N[C@H](CCCCN)C(=O)N[C@H](CO)C(=O)N[C@H](CC(C)C)C(=O)N[C@H](CC(C)C)C(=O)N[C@H](CCCCN)C(=O)N[C@@H](C(=O)N[C@H](CC(C)C)C(=O)N[C@H](CO)C(=O)N[C@H](C)C(=O)N[C@H](C)C(=O)N[C@H](CCCCN)C(=O)N[C@H](CCCCN)C(=O)N[C@H](CCCCN)C(=O)N[C@H](CCCCN)C(=O)N[C@H](CC(C)C)C(=O)N[C@H](C)C(=O)N[C@@H](C(=O)N[C@H](CC(C)C)C(=O)N[C@H](CC(C)C)C(=O)N[C@H](CCCCN)C(=O)N[C@H](C)C(=O)N[C@H](CC(C)C)C(=O)N[C@H](CO)C(=O)N[C@H](CO)C(N)=O)[C@H](C)O)[C@H](C)O", "note": "[Peptide D103, Ac-KL(Lys)SLL(Lys)TLSAAK(Lys)(Lys)KLATLL(Lys)ALSS-amide] (Ac-[dK][dL][dK][dS][dL][dL][dK][dT][dL][dS][dA][dA][dK][dK][dK][dK][dL][dA][dT][dL][dL][dK][dA][dL][dS][dS]-NH2)", "HC50 at 18 h": "381 µg/mL and 135 µM"}]}]}
